Test system: not given
Assay: not given
Conditions: not given
OC[C@H](O)COc1cc(Oc2ccc(F)cc2F)cc2[nH]nc(-c3ccccc3Cl)c12 (stereo in doubt) [Table 2 #1, 3-[3-(2-Chloro-phenyl)-6-(2,4-difluoro-phenoxy)-1H-indazol-4-yloxy]-propane-1,2-diol] showed a melting point of 93.3 to 94.6 °C. With CC(C)Nc1n[nH]c2nc(Oc3ccc(F)cc3F)ncc12 [Table 1 #1, [6-(2,4-Difluoro-phenoxy)-1H-pyrazolo[3,4-d]pyrimidin-3-yl]-isopropyl-amine] the melting point was 211.3 to 214.4 °C. CCS(=O)(=O)Nc1n[nH]c2nc(Oc3ccc(F)cc3F)ncc12 [Table 1 #14, Ethanesulfonic acid [6-(2,4-difluoro-phenoxy)-1H-pyrazolo[3,4-d]pyrimidin-3-yl]-amide] showed a melting point of 226 to 226.9 °C. In the case of O=C(Nc1n[nH]c2nc(Oc3ccc(F)cc3F)ncc12)C1CCCC1 [Table 1 #38, Cyclopentanecarboxylic acid [6-(2,4-difluoro-phenoxy)-1H-pyrazolo[3,4-d]pyrimidin-3-yl]-amide], the melting point is reported as 206.3 to 207.51 °C. Work on O=C(Nc1n[nH]c2nc(Oc3ccc(F)cc3F)ncc12)OCc1ccccc1 [Table 1 #42, [6-(2,4-Difluoro-phenoxy)-1H-pyrazolo[3,4-d]pyrimidin-3-yl]-carbamic acid benzyl ester] yielded a melting point of 270.1 to 272 °C.

Molecular target: T1, p38 MAP kinase (Homo sapiens, UniProt Q16539)
T1 construct: made in house; host or cells: E. coli (co-expressed with SEK-1 and MEKK)
T1 sequence (Q16539 whole entry): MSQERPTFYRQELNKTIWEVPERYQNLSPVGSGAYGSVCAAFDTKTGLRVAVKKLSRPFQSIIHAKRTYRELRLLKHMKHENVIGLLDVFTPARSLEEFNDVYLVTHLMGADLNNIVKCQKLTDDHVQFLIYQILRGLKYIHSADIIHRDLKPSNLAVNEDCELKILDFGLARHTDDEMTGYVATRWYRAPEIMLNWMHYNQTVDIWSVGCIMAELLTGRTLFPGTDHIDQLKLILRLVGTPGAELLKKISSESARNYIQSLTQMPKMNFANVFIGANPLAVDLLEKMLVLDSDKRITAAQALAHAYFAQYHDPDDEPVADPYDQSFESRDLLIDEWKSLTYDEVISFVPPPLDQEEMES
Assay: p38 (MAP) kinase in vitro assay (transfer of γ-phosphate from γ-33P-ATP to Myelin Basic Protein)
Assay type: biochemical
Conditions: phosphorylated recombinant p38 MAP kinase, MBP substrate, 30° C.
Method: This example illustrates a p38 (MAP) kinase in vitro assay useful for evaluating the compounds of the invention.
The p38 MAP kinase inhibitory activity of compounds of this invention in vitro was determined by measuring the transfer of the γ-phosphate from γ-^33P-ATP by p-38 kinase to Myelin Basic Protein (MBP), using a minor modification of the method described in Ahn, et al., J. Biol. Chem. 266:4220-4227 (1991).
The phosphorylated form of the recombinant p38 MAP kinase was co-expressed with SEK-1 and MEKK in E. Coli (see, Khokhlatchev, et al., J. Biol. Chem. 272:11057-11062 (1997)) and then purified by affinity chromatography using a Nickel column.
The phosphorylated p38 MAP kinase was diluted in kinase buffer (20 mM 3-(N-morpholino)propanesulfonic acid, pH 7.2, 25 mM β-glycerol phosphate, 5 mM ethylene glycol-bis(beta-aminoethyl ether)-N,N,N′,N′-tetraacetic acid, 1 mM sodium ortho-vanadate, 1 mM dithiothreitol, 40 mM magnesium chloride). Test compound dissolved in DMSO or only DMSO (control) was added and the samples were incubated for 10 min at 30° C. The kinase reaction was initiated by the addition of a substrate cocktail containing MBP and γ-^33P-ATP. […] The phosphorylated MBP was then separated from the residual γ-^33P-ATP using a phosphocellulose membrane (Millipore, Bedfrod, Mass.) and quantitated using a scintillation counter (Packard, Meriden, Conn.).
Molecule OC[C@H](O)CNc1cc(Oc2ccc(F)cc2F)cc2[nH]nc(-c3ccccc3Cl)c12 (stereo in doubt) [3-[3-(2-Chloro-phenyl)-6-(2,4-difluoro-phenoxy)-1H-indazol-4-ylamino]-propane-1,2-diol] has an IC50 of ~4 nM. Work on O=C(Nc1n[nH]c2nc(Oc3ccc(F)cc3F)ncc12)c1ccccc1Br [2-Bromo-N-[6-(2,4-difluoro-phenoxy)-1H-pyrazolo[3,4-d]pyrimidin-3-yl]-benzamide] yielded an IC50 of ~16 nM.

— patent US7601726B2, “Substituted pyrazolo[3,4-d]pyrimidines as p38 MAP kinase inhibitors” (Roche Palo Alto LLC, priority 2005, dated 2009)
